Laboratory results from US10966426B2, “Herbicidal compositions comprising phenylpyrimidines” (BASF SE, priority 2016, dated 2021).

Assays:
Type in all cases: in vivo
Helianthus annuus = assay: greenhouse post-emergence treatment, HELAN; conditions: Helianthus annuus, 480 h, 20 DAT, HELAN, metribuzin WG 70% solo 35 gai/ha
Protocol: The culture containers used were plastic pots containing loamy sand with approximately 3.0% of humus as substrate. The seeds of the test plants were sown separately for each species.
For the post-emergence treatment, the test plants were grown to a plant height of from 3 to 15 cm, depending on the plant habit, and only then treated with the active compounds which had been suspended or emulsified in water. To this end, the test plants were either sown directly, and grown in the same containers, or they were first grown separately as seedlings and transplanted into the test containers a few days prior to treatment.
Depending on the species, the plants were kept at 10-25° C. and 20-35° C., respectively.
The test period extended over 2 to 4 weeks. During this time, the plants were tended and their response to the individual treatments was evaluated.
Evaluation was carried out using a scale from 0 to 100. 100 means no emergence of the plants, or complete destruction of at least the above-ground parts, and 0 means no damage or normal course of growth. A good herbicidal activity is given at values of at least 70, and very good herbicidal activity is given at values of at least 85.
The respective stated components A and B, and if appropriate, C were formulated as a 10% by weight strength emulsion concentrate and, with addition of the amount of solvent system, introduced into the spray liquor used for applying the active compound. In the examples, the solvent used was water.
In the examples below, using the method of S. R. Colby (1967) “Calculating synergistic and antagonistic responses of herbicide combinations”, Weeds 15, p. 22ff., the value E, which is expected if the activity of the individual active compounds is only additive, was calculated. E=X+Y−(X·Y/100) where X=effect in percent using herbicide A at an application rate a; • Y=effect in percent using herbicide B at application rate b; • E=expected effect (in %) of herbicide A+herbicide B at application rates a+b.

Galium aparine = assay: greenhouse post-emergence treatment, GALAP; conditions: Galium aparine, 480 h, 20 DAT, GALAP
In short: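 Each species was grown separately and treated once it reached 3 to 15 cm, using actives suspended or emulsified in water. Plants were kept at 10-25° C. or 20-35° C., depending on species. Damage is a 0–100 rating taken during 2 to 4 weeks.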

Setaria viridis = assay: greenhouse pre-emergence treatment, SETVI; conditions: solo, WG 70%, SETVI, 31.25 gai/ha, 20 DAT
In short: (§1)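 Seeds were sown per species in pots of loamy sand with about 3.0% humus, sprayed with the aqueous spray liquor directly after sowing, watered and hooded until rooted, then kept at 10-25° C. or 20-35° C. for 2 to 4 weeks. Damage was scored 0 (none) to 100 (no emergence/complete destruction).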

Digitaria sanguinalis = assay: greenhouse post-emergence treatment, DIGSA; conditions: Digitaria sanguinalis, 480 h, 20 DAT, DIGSA
In short: (§2)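 Scoring ran on a 0-100 scale, 100 meaning no emergence or destroyed above-ground parts, over a 2-4 week period; Colby formula E=X+Y−(X·Y/100) gave expected mixture effects. Species grew separately in loamy sand (about 3.0% humus) at 10-25° C or 20-35° C, with water as solvent.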

Stellaria media = assay: greenhouse post-emergence treatment, STEME; conditions: Stellaria media, 480 h, 20 DAT, STEME, metribuzin WG 70% solo 35 gai/ha
In short: (§3)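 Loamy sand, ~3.0% humus; species sown separately; treated at 3–15 cm height; 10% w/w EC diluted in water; 10-25° C./20-35° C. per species; 2–4 wk; visual 0–100 rating.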

Echinocloa crus-galli = assay: greenhouse pre-emergence treatment, ECHCG; conditions: 20 DAT; for % activity: solo, WG 70%
In short: as §1

Papaver rhoeas = assay: greenhouse pre-emergence treatment, PAPRH; conditions: 20 DAT
In short: as §1

Apera spica-venti [1] = assay: greenhouse post-emergence treatment, APESV; conditions: 20 DAT, APESV; for % activity: solo, WG 70%
In short: as §3

Polygonum convolvulus = assay: greenhouse pre-emergence treatment, POLCO; conditions: Fallopia convolvulus, 480 h, 20 DAT, POLCO
In short: as §1

Apera spica-venti [2] = assay: greenhouse pre-emergence treatment, APESV; conditions: solo, WG 70%, 20 DAT
In short: as §1

Alopecurus myosuroides = assay: greenhouse post-emergence treatment, ALOMY; conditions: Alopecurus myosuroides, 480 h, 20 DAT, ALOMY
In short: as §2

[3] = metribuzin WG 70% solo 17.5 gai/ha
[4] = metribuzin WG 70% solo 35 gai/ha

CSc1nnc(C(C)(C)C)c(=O)n1N [metribuzin] was tested, and the inhibition at 35 g/ha (Helianthus annuus) was 70%, the inhibition at 17.5 g/ha (Galium aparine; [3]) was 0% and the inhibition at 35 g/ha (Galium aparine; [4]) was 0%. It also gave an inhibition at 70 g/ha (Galium aparine; metribuzin WG 70% solo 70 gai/ha) of 0%, an inhibition at 140 g/ha (Galium aparine; metribuzin WG 70% solo 140 gai/ha) of 0% and a pest or weed control at 35 g/ha (Galium aparine; solo, WG 70%, 35 gai/ha) of 0%. For the same compound, the pest or weed control at 70 g/ha (Galium aparine; solo, WG 70%, 70 gai/ha) was 0%, the pest or weed control at 140 g/ha (Galium aparine; solo, WG 70%, 140 gai/ha) was 0% and the “% activity” value (Setaria viridis) was 0%. It also gave an inhibition at 17.5 g/ha (Digitaria sanguinalis; [3]) of 0%, an inhibition at 35 g/ha (Digitaria sanguinalis; [4]) of 35% and a pest or weed control at 17.5 g/ha (Digitaria sanguinalis; solo, WG 70%, 17.5 gai/ha) of 0%. The pest or weed control at 35 g/ha (Digitaria sanguinalis; solo, WG 70%, 35 gai/ha) was 35%, the pest or weed control at 140 g/ha (Digitaria sanguinalis; solo, WG 70%, 140 gai/ha) was 85% and the inhibition at 35 g/ha (Stellaria media) was 80%. For the same compound, the inhibition at 62.5 g/ha (Echinocloa crus-galli; Echinochloa crus-galli, 480 h, metribuzin WG 70% solo 62.5 gai/ha) was 30%, the “% activity” value (Echinocloa crus-galli; 31.25 gai/ha) was 0% and the “% activity” value (Echinocloa crus-galli; 62.5 gai/ha) was 30%. For the same compound, the inhibition at 31.25 g/ha (Papaver rhoeas; Papaver rhoeas, 480 h, metribuzin WG 70% solo 31.25 gai/ha) was 80%, the inhibition at 125 g/ha (Papaver rhoeas; Papaver rhoeas, 480 h, metribuzin WG 70% solo 125 gai/ha) was 98% and the “% activity” value (Papaver rhoeas; solo, WG 70%, 31.25 gai/ha) was 80%. The inhibition at 17.5 g/ha (Apera spica-venti [1]; Apera spica-venti, 480 h, metribuzin WG 70% solo 17.5 gai/ha) was 10%, the inhibition at 35 g/ha (Apera spica-venti [1]; Apera spica-venti, 480 h, metribuzin WG 70% solo 35 gai/ha) was 55% and the “% activity” value (Apera spica-venti [1]; 17.5 gai/ha) was 10%. The “% activity” value (Apera spica-venti [1]; 35 gai/ha) was 55%, the “% activity” value (Apera spica-venti [1]; 70 gai/ha) was 90% and the inhibition at 62.5 g/ha (Polygonum convolvulus; metribuzin WG 70% solo 62.5 gai/ha, read-out: % activity) was 0%. The inhibition at 125 g/ha (Polygonum convolvulus; metribuzin WG 70% solo 125 gai/ha, read-out: % activity) was 0%, the inhibition at 250 g/ha (Polygonum convolvulus; metribuzin WG 70% solo 250 gai/ha, read-out: % activity) was 0% and the pest or weed control at 62.5 g/ha (Polygonum convolvulus; solo, WG 70%, 62.5 gai/ha) was 0%. For the same compound, the pest or weed control at 125 g/ha (Polygonum convolvulus; solo, WG 70%, 125 gai/ha) was 0%, the “% activity” value (Apera spica-venti [2]; 31.25 gai/ha) was 30% and the “% activity” value (Apera spica-venti [2]; 62.5 gai/ha) was 50%. For the same compound, the inhibition at 17.5 g/ha (Alopecurus myosuroides; [3]) was 0%, the inhibition at 35 g/ha (Alopecurus myosuroides; metribuzin WG 70% solo 35 gai/ha, read-out: % activity) was 10% and the pest or weed control at 17.5 g/ha (Alopecurus myosuroides; solo, WG 70%, 17.5 gai/ha) was 0%. The pest or weed control at 35 g/ha (Alopecurus myosuroides; solo, WG 70%, 35 gai/ha) was 10%.
